Assays:
Type in all cases: cell-based
[1] = target: T1, human prostanoid IP receptor (Homo sapiens, UniProt P43119); test: FLIPR Ca2+ signaling antagonist assay, IP receptor stable cell line; settings: human recombinant IP in HEK-293 EBNA cells; standard agonist Cicaprost; NA = no antagonism or Kb>=10,000 nM
T1 construct: expressed in transfected cells
Protocol: (§1) The above compounds were tested for PG antagonist activity as follows using human recombinant prostanoid receptor (DP1, EP1-4, FP, IP and TP) stable cell lines:
(§2) In order to measure the response of Gs and Gi coupled prostanoid receptors as a Ca^2+ signal, chimeric G protein cDNAs were used. Stable cell lines over-expressing human prostanoid DP1, EP1-4, FP, IP, and TP receptors were established as follows:
(§3) Briefly, human prostanoid DP1, EP2, and EP4 receptor cDNAs were co-transfected with chimeric Gqs cDNA containing a haemagglutanin (HA) epitope; human prostanoid EP3 receptors were co-transfected with chimeric Gqi-HA; human EP1, FP, IP, and TP receptor cDNAs were expressed with no exogenous G-proteins. Gqs and Gqi chimeric cDNAs (Molecular Devices, Sunnyvale, Calif., U.S.A.), as well as cDNAs of prostanoid receptors, were cloned into a pCEP4 vector with a hygromycin B selection marker. Transfection into HEK-293 EBNA (Epstein-Barr virus nuclear antigen) cells was achieved by the FuGENE 6 transfection Reagent (Roche Applied Science, Indianapolis, Ind., USA). Stable transfectants were selected according to hygromycin resistance. Because Gqs and Gqi contained an HA epitope, G-protein expression was detected by Western blotting analysis using anti-mouse HA monoclonal antibody and horseradish peroxidase (HRP)-conjugated secondary antibody, while functional expression of prostanoid receptors was detected by FLIPR screening (Matias et al., 2004). These stable cell lines were validated using previously published antagonists at 10 μM against serial dilutions of standard agonists by FLIPR functional assays for Ca^2+ Signaling (as described below).
(§4) Ca^2+ signaling studies were performed using a FLIPR TETRA system (Molecular Devices, Sunnyvale, Calif., USA) in the 384-format. This is a high-throughput instrument for cell-based assays to monitor Ca^2+ signaling associated with GPCRs and ion channels. Cells were seeded at a density of 5×10^4 cells/well in BioCoat poly-D-lysine coated, black wall, clear bottom 384-well plates (BD Biosciences, Franklin lakes, NJ, USA) and allowed to attach overnight in an incubator at 37° C. The cells were then washed twice with HBSS-HEPES buffer (Hanks' balanced salt solution without bicarbonate and phenol red, 20 mM HEPES, pH 7.4) using an ELx405 Select CW Microplate Washer (BioTek, Winooski, Vt., USA). After 60 min of dye-loading in the dark using the Ca^2+-sensitive dye Fluo-4AM (Invitrogen, Carlsbad, Calif., USA), at a final concentration of 2×10^−6M, the plates were washed 4 times with HBSS-HEPES buffer to remove excess dye and leaving 50 μl of buffer in each well. The plates were then placed in the FLIPR TETRA instrument and allowed to equilibrate at 37° C. AGN-211377 was added in a 25 μl volume to each well to give final concentrations of 0.1 μl. M, 0.4M, 1 μM, 3 μl. M, 10 μl. M, and 30 μl. M; or 0.067 μM, 0.4M, 0.67 μM, and 1 μM for cells over-expressing TP receptors. After 4.5 minutes, a 7-point serial dilution of the standard agonist for the corresponding receptor, in a 25 μl volume was injected at the final concentrations from 10^−11M to 10^−5M in 10-fold serial dilution increments for cells expressing human recombinant DP1, EP1, EP2, EP3, EP4, FP, and IP receptors. The dose range for the standard agonist for human recombinant TP receptors was from 10^−12M to 10^−6M. HBSS-HEPES buffer was used as the negative control for the standard agonists. Cells were excited with LED (light emitting diode) excitation at 470-495 nm and emission was measured through an emission filter at 515-575 nm. Assay plates were read for 3.5 minutes using the FLIPR^TETRA. The peak increase in fluorescence intensity was recorded for each well. On each plate, negative controls, dose response of positive controls, and co-treatments of antagonist-agonist for each dose were in triplicates. Standard agonists were as follows: DP=BW 245C, EP1-EP4=PGE2, FP=17-phenyl-PGF2a, IP=Cicaprost, and TP=U-46619. […]

[2] = target: T2, human prostanoid EP4 receptor (Homo sapiens, UniProt P35408); test: FLIPR Ca2+ signaling antagonist assay, EP4 receptor stable cell line; settings: human recombinant EP4 + chimeric Gqs in HEK-293 EBNA cells; standard agonist PGE2; NA = no antagonism or Kb>=10,000 nM
T2 construct: expressed in transfected cells
Protocol: as §1, §2, §3, §4

[3] = target: T3, human prostanoid EP3 receptor (Homo sapiens, UniProt P43115); test: FLIPR Ca2+ signaling antagonist assay, EP3 receptor stable cell line; settings: human recombinant EP3 + chimeric Gqi in HEK-293 EBNA cells; standard agonist PGE2; NA = no antagonism or Kb>=10,000 nM
T3 construct: expressed in transfected cells
T3 sequence (P43115 1-390): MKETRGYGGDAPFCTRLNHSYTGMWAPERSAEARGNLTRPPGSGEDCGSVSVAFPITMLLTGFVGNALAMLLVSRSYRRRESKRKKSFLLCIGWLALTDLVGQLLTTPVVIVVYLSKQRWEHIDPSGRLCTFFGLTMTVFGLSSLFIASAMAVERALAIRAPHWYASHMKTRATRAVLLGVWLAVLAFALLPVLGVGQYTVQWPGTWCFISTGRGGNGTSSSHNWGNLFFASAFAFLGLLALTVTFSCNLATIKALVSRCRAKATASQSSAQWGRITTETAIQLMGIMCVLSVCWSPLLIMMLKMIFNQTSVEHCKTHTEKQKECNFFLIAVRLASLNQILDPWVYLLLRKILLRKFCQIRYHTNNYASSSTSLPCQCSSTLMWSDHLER
Protocol: as §1, §2, §3, §4

[4] = target: T4, human prostanoid EP2 receptor (Homo sapiens, UniProt P43116); test: FLIPR Ca2+ signaling antagonist assay, EP2 receptor stable cell line; settings: human recombinant EP2 + chimeric Gqs in HEK-293 EBNA cells; standard agonist PGE2; NA = no antagonism or Kb>=10,000 nM
T4 construct: expressed in transfected cells
Protocol: as §1, §2, §3, §4

[5] = target: T5, human prostanoid FP receptor (Homo sapiens, UniProt P43088); test: FLIPR Ca2+ signaling antagonist assay, FP receptor stable cell line; settings: human recombinant FP in HEK-293 EBNA cells; standard agonist 17-phenyl-PGF2a; NA = no antagonism or Kb>=10,000 nM
T5 construct: expressed in transfected cells
Protocol: as §1, §2, §3, §4

T4 sequence (P43116 whole entry): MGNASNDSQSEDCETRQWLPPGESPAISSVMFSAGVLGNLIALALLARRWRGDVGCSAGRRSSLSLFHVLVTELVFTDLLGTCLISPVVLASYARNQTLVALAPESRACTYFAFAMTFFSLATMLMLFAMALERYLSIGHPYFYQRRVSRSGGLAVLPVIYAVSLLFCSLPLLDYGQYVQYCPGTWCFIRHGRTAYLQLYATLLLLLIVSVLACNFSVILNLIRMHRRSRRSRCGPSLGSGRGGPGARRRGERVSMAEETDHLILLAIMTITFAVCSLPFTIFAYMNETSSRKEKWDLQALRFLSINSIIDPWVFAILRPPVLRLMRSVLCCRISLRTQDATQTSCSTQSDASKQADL
T1 sequence (P43119 whole entry): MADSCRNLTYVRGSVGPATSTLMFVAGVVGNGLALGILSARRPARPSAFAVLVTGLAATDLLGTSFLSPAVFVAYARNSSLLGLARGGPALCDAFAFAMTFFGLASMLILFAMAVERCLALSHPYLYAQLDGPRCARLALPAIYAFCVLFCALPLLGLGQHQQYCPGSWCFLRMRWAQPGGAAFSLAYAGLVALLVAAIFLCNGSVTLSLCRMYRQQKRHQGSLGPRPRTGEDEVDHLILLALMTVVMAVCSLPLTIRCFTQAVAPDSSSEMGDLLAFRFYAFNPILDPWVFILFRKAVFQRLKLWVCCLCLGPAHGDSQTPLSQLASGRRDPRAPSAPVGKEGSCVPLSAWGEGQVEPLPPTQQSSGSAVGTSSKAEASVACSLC
T5 sequence (P43088 whole entry): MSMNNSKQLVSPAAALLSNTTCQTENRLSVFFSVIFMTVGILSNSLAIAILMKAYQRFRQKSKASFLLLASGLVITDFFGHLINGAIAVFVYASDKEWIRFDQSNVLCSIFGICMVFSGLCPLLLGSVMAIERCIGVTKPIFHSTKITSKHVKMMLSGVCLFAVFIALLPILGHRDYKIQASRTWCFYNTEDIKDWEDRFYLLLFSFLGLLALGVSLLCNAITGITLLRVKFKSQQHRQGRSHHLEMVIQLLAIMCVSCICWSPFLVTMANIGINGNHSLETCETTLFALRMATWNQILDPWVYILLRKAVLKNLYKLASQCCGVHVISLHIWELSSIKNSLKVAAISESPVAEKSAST
T2 sequence (P35408 whole entry): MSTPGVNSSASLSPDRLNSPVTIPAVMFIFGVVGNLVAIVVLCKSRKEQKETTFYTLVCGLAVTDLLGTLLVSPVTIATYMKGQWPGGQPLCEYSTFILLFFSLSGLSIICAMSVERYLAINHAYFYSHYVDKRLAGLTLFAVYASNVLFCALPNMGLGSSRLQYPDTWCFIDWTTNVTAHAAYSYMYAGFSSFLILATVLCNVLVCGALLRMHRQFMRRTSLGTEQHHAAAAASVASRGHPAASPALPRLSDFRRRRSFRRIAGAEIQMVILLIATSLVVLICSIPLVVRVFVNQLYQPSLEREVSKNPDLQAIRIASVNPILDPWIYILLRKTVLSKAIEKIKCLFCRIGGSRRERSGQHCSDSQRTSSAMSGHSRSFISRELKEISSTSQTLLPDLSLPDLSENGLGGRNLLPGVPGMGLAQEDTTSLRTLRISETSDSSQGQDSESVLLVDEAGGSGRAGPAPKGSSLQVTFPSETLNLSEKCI

With `CC(C)Cn1ncc2cc(Cl)cc(Cn3ncc4cc(C(=O)O)ccc43)c21` [Compound 41, 1-(5-Chloro-1-isobutyl-1H-indazol-7-ylmethyl)-1H-indazole-5-carboxylic acid] the Kb [1] was > 10000 nM, the Kb [2] was 24 nM and the Kb [3] was > 10000 nM. It also gave a Kb [4] of 9200 nM and a Kb [5] of 70 nM.
`CC(C)Cn1ncc2cc(Br)cc(Cn3ncc4cc(C(=O)O)ccc43)c21` [Compound 42, 1-(5-Bromo-1-isobutyl-1H-indazol-7-ylmethyl)-1H-indazole-5-carboxylic acid] was tested, and the Kb [1] was > 10000 nM, the Kb [2] was 22 nM and the Kb [3] was > 10000 nM. For the same molecule, the Kb [4] was > 10000 nM and the Kb [5] was 40 nM.
